Assay results from paper PMC11472320, “Computationally Driven Discovery of a BCR-ABL1 Kinase Inhibitor with Activity in Multidrug-Resistant Chronic Myeloid Leukemia” (Journal of Medicinal Chemistry, 2024).
Read-outs that look alike come from different tables or passages of the source.

Key:
MDCKII-MDR1 cells [1] = details: cited from earlier work
[2] = cited from earlier work
[3] = Metabolic stability in hepatocytes; assay type: in vitro ADME, human; details: for hepatocyte CLint: both sexes, read-out: HEPClint (H); for hepatocyte CLint / t1/2 (H): human hepatocytes
Text: (§1) Metabolic stability in hepatocytes
(§2) Table S4. Hepatocyte details used in the hepatocyte stability assay.
(§3) Human Hepatocytes, Mixed-Gender BiolVT (Cat No. X008001)
(§4) Mouse Hepatocytes, Male-Gender BiolVT (Cat No. M005052)

[4] = Plasma protein binding by equilibrium dialysis; assay type: in vitro ADME; details: human plasma; for fraction unbound / recovery / remaining at 6 h: both sexes
[5] = Metabolic stability in hepatocytes; assay type: in vitro ADME, mouse
Text: as §1, §2, §3, §4

Caco-2 cells = test: Caco-2 permeability
cSRC wt = cSRC wt (Homo sapiens, UniProt P12931); test: KinaseProfiler enzymatic radiometric kinase assay
Sequence of cSRC wt (P12931 whole entry): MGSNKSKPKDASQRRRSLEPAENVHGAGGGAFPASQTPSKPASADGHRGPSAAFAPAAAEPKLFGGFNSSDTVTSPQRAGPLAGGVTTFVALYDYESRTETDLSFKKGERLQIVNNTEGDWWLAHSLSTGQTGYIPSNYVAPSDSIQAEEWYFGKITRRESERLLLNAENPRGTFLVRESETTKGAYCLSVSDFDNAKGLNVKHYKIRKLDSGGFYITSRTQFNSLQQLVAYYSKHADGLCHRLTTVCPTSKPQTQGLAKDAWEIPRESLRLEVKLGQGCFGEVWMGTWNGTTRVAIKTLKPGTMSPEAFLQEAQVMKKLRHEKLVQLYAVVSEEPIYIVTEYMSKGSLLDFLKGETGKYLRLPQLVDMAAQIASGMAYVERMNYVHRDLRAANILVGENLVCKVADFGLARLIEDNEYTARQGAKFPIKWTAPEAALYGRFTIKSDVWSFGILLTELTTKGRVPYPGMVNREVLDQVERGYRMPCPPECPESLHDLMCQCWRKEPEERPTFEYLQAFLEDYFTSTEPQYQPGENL

in vitro [6] = details: human, Caco-2
BCR-ABL1 wt = BCR-ABL1 wt (Homo sapiens, UniProt P00519); test: KinaseProfiler enzymatic radiometric kinase assay; details: read-out: Kinase IC50 BCR-ABL1 wt; [ATP] = 10 µM, n = 2
Sequence of BCR-ABL1 wt (P00519 27-1130 limits assumed): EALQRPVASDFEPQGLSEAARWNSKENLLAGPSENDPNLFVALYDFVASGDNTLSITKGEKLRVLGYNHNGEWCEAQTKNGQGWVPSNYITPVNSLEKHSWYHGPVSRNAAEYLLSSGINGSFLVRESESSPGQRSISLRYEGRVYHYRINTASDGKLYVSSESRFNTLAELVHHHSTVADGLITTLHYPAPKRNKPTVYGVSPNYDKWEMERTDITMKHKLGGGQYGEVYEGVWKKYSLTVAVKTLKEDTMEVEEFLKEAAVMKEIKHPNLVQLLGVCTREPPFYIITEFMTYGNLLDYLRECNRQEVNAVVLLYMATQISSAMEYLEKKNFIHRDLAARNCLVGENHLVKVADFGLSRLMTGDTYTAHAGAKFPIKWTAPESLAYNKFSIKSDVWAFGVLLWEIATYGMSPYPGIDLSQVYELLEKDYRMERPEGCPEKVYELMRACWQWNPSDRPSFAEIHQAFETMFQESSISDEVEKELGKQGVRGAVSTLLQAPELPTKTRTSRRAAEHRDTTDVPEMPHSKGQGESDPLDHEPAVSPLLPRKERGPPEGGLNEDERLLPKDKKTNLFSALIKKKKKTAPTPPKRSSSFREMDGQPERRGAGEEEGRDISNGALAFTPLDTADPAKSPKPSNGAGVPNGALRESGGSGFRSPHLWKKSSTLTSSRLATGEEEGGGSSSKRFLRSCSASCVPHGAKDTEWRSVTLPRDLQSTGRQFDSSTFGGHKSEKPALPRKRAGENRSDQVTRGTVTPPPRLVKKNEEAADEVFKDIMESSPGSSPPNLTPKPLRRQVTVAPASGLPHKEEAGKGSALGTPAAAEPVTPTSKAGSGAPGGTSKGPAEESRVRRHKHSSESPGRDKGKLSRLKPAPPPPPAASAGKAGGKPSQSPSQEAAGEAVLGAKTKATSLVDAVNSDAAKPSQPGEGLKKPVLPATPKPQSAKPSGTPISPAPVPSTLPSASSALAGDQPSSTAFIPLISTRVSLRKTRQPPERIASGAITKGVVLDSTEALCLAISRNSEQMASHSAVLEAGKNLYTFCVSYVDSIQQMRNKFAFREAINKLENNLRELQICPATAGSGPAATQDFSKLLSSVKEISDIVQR

[7] = molecular target: T1, hERG potassium ion channel (Homo sapiens, UniProt Q12809); test: hERG safety evaluation by manual patch-clamp (HEK 293); assay type: cell-based; details: mean ± SEM in Table S11
T1 construct: host or cells: HEK 293
T1 sequence (Q12809 whole entry): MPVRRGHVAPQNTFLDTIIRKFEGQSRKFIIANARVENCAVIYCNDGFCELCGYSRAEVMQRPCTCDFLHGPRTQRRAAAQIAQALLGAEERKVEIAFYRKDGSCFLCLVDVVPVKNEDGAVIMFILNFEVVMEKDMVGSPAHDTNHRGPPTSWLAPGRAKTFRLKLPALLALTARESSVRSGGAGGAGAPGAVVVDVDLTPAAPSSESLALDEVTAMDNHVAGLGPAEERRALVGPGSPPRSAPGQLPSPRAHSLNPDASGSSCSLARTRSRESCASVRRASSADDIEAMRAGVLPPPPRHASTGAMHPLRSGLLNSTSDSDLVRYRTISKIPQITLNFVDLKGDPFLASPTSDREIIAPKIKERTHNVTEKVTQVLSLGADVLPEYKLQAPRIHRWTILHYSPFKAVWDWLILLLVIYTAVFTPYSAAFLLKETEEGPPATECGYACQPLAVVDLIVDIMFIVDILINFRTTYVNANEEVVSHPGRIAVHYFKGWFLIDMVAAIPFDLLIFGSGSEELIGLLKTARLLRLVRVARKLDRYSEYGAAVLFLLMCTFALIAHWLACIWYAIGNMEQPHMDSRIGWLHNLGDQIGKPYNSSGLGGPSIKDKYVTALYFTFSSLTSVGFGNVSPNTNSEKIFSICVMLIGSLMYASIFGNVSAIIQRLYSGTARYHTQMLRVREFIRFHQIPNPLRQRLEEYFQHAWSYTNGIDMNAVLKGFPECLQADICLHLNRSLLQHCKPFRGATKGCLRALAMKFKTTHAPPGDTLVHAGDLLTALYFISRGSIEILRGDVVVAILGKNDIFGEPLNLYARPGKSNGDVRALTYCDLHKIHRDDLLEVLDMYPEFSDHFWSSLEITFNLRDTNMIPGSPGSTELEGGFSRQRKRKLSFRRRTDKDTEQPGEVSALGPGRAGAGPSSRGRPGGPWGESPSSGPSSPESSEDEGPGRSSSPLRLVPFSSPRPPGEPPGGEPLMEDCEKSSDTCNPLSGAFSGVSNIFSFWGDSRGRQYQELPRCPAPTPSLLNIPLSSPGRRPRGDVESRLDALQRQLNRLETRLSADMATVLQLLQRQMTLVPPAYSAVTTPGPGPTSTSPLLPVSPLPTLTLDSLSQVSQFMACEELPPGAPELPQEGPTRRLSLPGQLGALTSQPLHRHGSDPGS
Text: hERG Safety evaluation by manual patch-clamp system
aIC50 values are presented as the mean ± SEM, n = 3 independent replicates unless otherwise
𝜇M) and run in triplicate. cValues a s previously reported in Ref. 1 .dMean of n = 2 independent
Points indicate the mean, and error bars indicate
the SD; n ≥ 2 independent replicates. IC 50 values ( 𝜇M) are reported beside the dose -response
curves and represent the mean ± SEM.

Aqueous solubility = assay type: physicochemical; details: pH 7.4
MDCKII-MDR1 cells [8] = test: MDCKII-MDR1 permeability; details: for Recovery% (BL-AP) / efflux ratio: Table S7
Lipophilicity logD7.4 = assay type: physicochemical; details: pH 7.4
MDR1 (P-gp) = test: in vitro; details: dog, MDCK-MDR1
in vitro [9] = details: dog, MDCK-MDR1
MDR1 = test: in vitro; details: dog, MDCK-MDR1
[10] = Plasma protein binding by equilibrium dialysis; assay type: in vitro ADME; details: mouse plasma; for recovery / remaining at 6 h / fraction unbound: both sexes, CD-1; for fraction unbound: read-out: %Bound (converted)
mutant BCR-ABL1 kinases = test: Biochemical kinase inhibition, summary statements; set-up: species or system human; details: read-out: IC50 against mutant BCR-ABL1 kinases
P-glycoprotein (P-gp) = details: Figure 1A; cited from earlier work
[11] = cited from earlier work; remark: listed apart in the source
K562 cells = test: Cell viability assay (CellTiter-Glo); assay type: cell-based, human

## COc1cc2ncnc(Nc3cccc(Cl)c3F)c2cc1OC(=O)N1CCN(C)C[C@H]1C [AZD3759]
MDCKII-MDR1 cells [1]
  MDCKII-MDR1 Efflux Ratio: 0.4
  P-gp efflux status: Not a P-gp Substrate

## COc1cc(Nc2c(C#N)cnc3cc(OCCON4CCN(C)CC4)c(OC)cc23)c(Cl)cc1Cl [5a]
[2]
  Micronucleus: Negative

## COc1cc(Cl)ccc1Nc1c(C#N)cnc2cc(OCCON3CCN(C)CC3)c(OC)cc12 [15a, 4-((4-Chloro-2-methoxyphenyl)amino)-6-methoxy-7-(2-((4-methylpiperazin-1-yl)oxy)ethoxy)quinoline-3-carbonitrile]
[3]; 0.5 min
  Remaining Percentages: 100.00%
[3]; 15 min
  Remaining Percentages: 78.44%
[3]; 30 min
  Remaining Percentages: 63.53%
[3]; 60 min
  Remaining Percentages: 43.29%
[3]; 90 min
  Remaining Percentages: 27.95%
[3]; 120 min
  Remaining Percentages: 20.14%
[3]
  hepatocyte CLint: 26.8 µL/min/1e6 cells
  t1/2 (H): 0.862 h
[4]
  fraction unbound: 0.0773
  recovery: 95.8%
  remaining at 6 h: 99.4%
  %Unbound: 7.73%
[5]; 0.5 min
  Remaining Percentages: 100.00%
[5]; 15 min
  Remaining Percentages: 55.53%
[5]; 30 min
  Remaining Percentages: 28.57%
[5]; 60 min
  Remaining Percentages: 13.26%
[5]; 90 min
  Remaining Percentages: 6.75%
[5]; 120 min
  Remaining Percentages: 2.89%
Caco-2 cells; Table S9
  Recovery% (BL-AP): 78.22%
  efflux ratio: 6.24
Caco-2 cells
  Caco-2 Papp (a-b): 0.7 ×10⁻⁶ cm/s
  Caco-2 Papp (b-a): 4.4 ×10⁻⁶ cm/s
cSRC wt
  IC50: 11 nM
In vitro [6]
  Papp A→B: 0.71 ×10⁻⁶ cm/s
  Papp B→A: 4.44 ×10⁻⁶ cm/s
  efflux ratio: 6.3
  recovery: 72.2%
BCR-ABL1 wt
  IC50: 6 nM
[7]
  IC50: 4360 nM
Aqueous solubility
  Aq. Sol.: 0.8 µM
MDCKII-MDR1 cells [8]
  Recovery% (BL-AP): 72.29%
Lipophilicity logD7.4
  logD: 3.1
MDR1 (P-gp)
  Papp A→B: 5.9 ×10⁻⁶ cm/s
  Papp B→A: 24.8 ×10⁻⁶ cm/s
In vitro [9]
  recovery: 84.5%
MDR1
  Papp B→A: 24.8 ×10⁻⁶ cm/s
  efflux ratio: 4.2
[10]
  recovery: 95.9%
  remaining at 6 h: 106%
  fraction unbound: 0.0971
  %Unbound: 9.71%

## COc1cc2c(Nc3cccc(OC)c3F)c(C#N)cnc2cc1OCCON1CCN(C)CC1 [13a, 4-((2-Fluoro-3-methoxyphenyl)amino)-6-methoxy-7-(2-((4-methylpiperazin-1-yl)oxy)ethoxy)quinoline-3-carbonitrile]
[3]; 0.5 min
  Remaining Percentages: 100.00%
[3]; 15 min
  Remaining Percentages: 97.02%
[3]; 30 min
  Remaining Percentages: 95.67%
[3]; 60 min
  Remaining Percentages: 80.41%
[3]; 90 min
  Remaining Percentages: 67.22%
[3]; 120 min
  Remaining Percentages: 54.89%
[3]
  hepatocyte CLint: 10.3 µL/min/1e6 cells
  t1/2 (H): 2.243 h
[4]
  fraction unbound: 0.13
  recovery: 87.8%
  remaining at 6 h: 98.3%
  %Unbound: 12.97%
Caco-2 cells; Table S9
  Recovery% (BL-AP): 92.56%
  efflux ratio: 12.36
Caco-2 cells
  Caco-2 Papp (a-b): 2.7 ×10⁻⁶ cm/s
  Caco-2 Papp (b-a): 33.6 ×10⁻⁶ cm/s
cSRC wt
  IC50: 34 nM
In vitro [6]
  Papp A→B: 2.72 ×10⁻⁶ cm/s
  Papp B→A: 33.6 ×10⁻⁶ cm/s
  efflux ratio: 12.4
  recovery: 84.8%
BCR-ABL1 wt
  IC50: 19 nM
Aqueous solubility
  Aq. Sol.: 29 µM
MDCKII-MDR1 cells [8]
  Recovery% (BL-AP): 105.61%
  efflux ratio: 7.26
Lipophilicity logD7.4
  logD: 2.6
MDR1 (P-gp)
  Papp A→B: 7.5 ×10⁻⁶ cm/s
  Papp B→A: 54.4 ×10⁻⁶ cm/s
In vitro [9]
  recovery: 93.1%
MDR1
  Papp A→B: 7.53 ×10⁻⁶ cm/s
  Papp B→A: 54.4 ×10⁻⁶ cm/s
  efflux ratio: 7.3
Mutant BCR-ABL1 kinases
  IC50: ≥ 15 nM

## O=C(Nc1ccc(OC(F)(F)Cl)cc1)c1cnc(N2CC[C@@H](O)C2)c(-c2ccn[nH]2)c1 [Asciminib, asciminib]
P-glycoprotein (P-gp)
  P-gp efflux status: P-gp Substrate

## Cc1nc(Nc2ncc(C(=O)Nc3c(C)cccc3Cl)s2)cc(N2CCN(CCO)CC2)n1 [Dasatinib, dasatinib]
P-glycoprotein (P-gp)
  P-gp efflux status: P-gp Substrate

## COc1c2c(cc3ncnc(Nc4ccccc4)c13)OCCO2 [compound 10]
[11]
  Abraham ANMR Value: 0.02

## COc1cc(Nc2c(C#N)cnc3cc(OCCON4CCN(C)CC4)c(OC)cc23)ccc1Cl [14a]
[3]; 0.5 min
  Remaining Percentages: 100.00%
[3]; 15 min
  Remaining Percentages: 83.13%
[3]; 30 min
  Remaining Percentages: 68.12%
[3]; 60 min
  Remaining Percentages: 50.16%
[3]; 90 min
  Remaining Percentages: 37.41%
[3]; 120 min
  Remaining Percentages: 25.52%
[3]
  hepatocyte CLint: 22.3 µL/min/1e6 cells
  t1/2 (H): 1.04 h
Caco-2 cells; Table S9
  Recovery% (AP-BL): 65.43%
  Recovery% (BL-AP): 92.37%
  efflux ratio: 18.96
Caco-2 cells
  Caco-2 Papp (a-b): 2 ×10⁻⁶ cm/s
  Caco-2 Papp (b-a): 37.4 ×10⁻⁶ cm/s
cSRC wt
  IC50: 2 nM
In vitro [6]
  Papp A→B: 1.99 ×10⁻⁶ cm/s
  Papp B→A: 37.4 ×10⁻⁶ cm/s
  efflux ratio: 18.7
BCR-ABL1 wt
  IC50: < 1 nM
Aqueous solubility
  Aq. Sol.: 7 µM
MDCKII-MDR1 cells [8]
  Recovery% (BL-AP): 77.51%
  efflux ratio: 6.05
K562 cells; Homo sapiens, K562, 72 h, read-out: K562 Cell Line IC50 (95% CI), 72 h, n = 3, unadjusted for FBS
  IC50: 218 nM
K562 cells; read-out: K562 Cell Line IC50 (95% CI), 72 h, n = 3, unadjusted for FBS
  IC50: 186 nM
Lipophilicity logD7.4
  logD: 3.1
MDR1 (P-gp)
  Papp A→B: 4.1 ×10⁻⁶ cm/s
  Papp B→A: 24.7 ×10⁻⁶ cm/s
In vitro [9]
  recovery: 75.4%
MDR1
  Papp A→B: 4.08 ×10⁻⁶ cm/s
  Papp B→A: 24.7 ×10⁻⁶ cm/s
  efflux ratio: 6

## Cc1ccc(NC(=O)c2ccc(CN3CCN(C)CC3)cc2)cc1Nc1nccc(-c2cccnc2)n1 [Imatinib, imatinib]
P-glycoprotein (P-gp)
  P-gp efflux status: P-gp Substrate

## COCCc1ccc(OCC(O)CNC(C)C)cc1 (stereo not shown) [Metoprolol, reference compound]
Caco-2 cells; Table S9
  Recovery% (BL-AP): 95.54%
In vitro [6]
  Papp A→B: 18.8 ×10⁻⁶ cm/s
  Papp B→A: 19.4 ×10⁻⁶ cm/s
  recovery: 95.3%
MDCKII-MDR1 cells [8]
  Recovery% (BL-AP): 99.15%
In vitro [9]
  recovery: 112%
MDR1
  Papp A→B: 31.6 ×10⁻⁶ cm/s
  Papp B→A: 28.1 ×10⁻⁶ cm/s
  efflux ratio: 0.89

## COc1cc2c(Nc3cccc(OC)c3Cl)c(C#N)cnc2cc1OCCON1CCN(C)CC1 [12a, 4-((2-Chloro-3-methoxyphenyl)amino)-6-methoxy-7-(2-((4-methylpiperazin-1-yl)oxy)ethoxy)quinoline-3-carbonitrile]
[3]; 0.5 min
  Remaining Percentages: 100.00%
[3]; 15 min
  Remaining Percentages: 87.31%
[3]; 30 min
  Remaining Percentages: 80.64%
[3]; 60 min
  Remaining Percentages: 60.46%
[3]; 90 min
  Remaining Percentages: 46.43%
[3]; 120 min
  Remaining Percentages: 35.84%
[3]
  hepatocyte CLint: 17.2 µL/min/1e6 cells
  t1/2 (H): 1.34 h
[4]
  fraction unbound: 0.0737
  recovery: 92.5%
  remaining at 6 h: 97.8%
  %Unbound: 7.37%
Caco-2 cells; Table S9
  Recovery% (BL-AP): 87.19%
  efflux ratio: 3.58
Caco-2 cells
  Caco-2 Papp (a-b): 6.5 ×10⁻⁶ cm/s
  Caco-2 Papp (b-a): 23.1 ×10⁻⁶ cm/s
cSRC wt
  IC50: 14 nM
In vitro [6]
  Papp A→B: 6.46 ×10⁻⁶ cm/s
  Papp B→A: 23.1 ×10⁻⁶ cm/s
  efflux ratio: 3.6
  recovery: 76.2%
BCR-ABL1 wt
  IC50: 20 nM
[7]
  IC50: 5160 nM
Aqueous solubility
  Aq. Sol.: 123 µM
MDCKII-MDR1 cells [8]
  enhancement in permeability in MDCKII-MDR1 cells relative to bosutinib: 31 fold
  Recovery% (BL-AP): 91.60%
  efflux ratio: 3.22
Lipophilicity logD7.4
  logD: 2.7
MDR1 (P-gp)
  Papp A→B: 12.5 ×10⁻⁶ cm/s
  Papp B→A: 39 ×10⁻⁶ cm/s
In vitro [9]
  recovery: 95%
MDR1
  Papp A→B: 12.5 ×10⁻⁶ cm/s
  Papp B→A: 39 ×10⁻⁶ cm/s
  efflux ratio: 3.1
[10]
  recovery: 92%
  remaining at 6 h: 96.7%
  fraction unbound: 0.119
  %Unbound: 11.93%
Mutant BCR-ABL1 kinases
  IC50: ≥ 15 nM

## COc1cc2ncnc(Nc3ccc(F)c(Cl)c3)c2cc1OCCON1CCN(C)CC1 [6a]
MDCKII-MDR1 cells [1]
  MDCKII-MDR1 Efflux Ratio: 8.7
  P-gp efflux status: P-gp Substrate

## Fc1c2c(cc3ncnc(Nc4ccccc4)c13)OCCO2 [compound 9]
[11]
  Abraham ANMR Value: 0.10

## C[C@H]1O[C@@H](O[C@H]2[C@@H](O)C[C@H](O[C@H]3[C@@H](O)C[C@H](O[C@H]4CC[C@@]5(C)[C@H](CC[C@@H]6[C@@H]5C[C@@H](O)[C@]5(C)[C@@H](C7=CC(=O)OC7)CC[C@]65O)C4)O[C@@H]3C)O[C@@H]2C)C[C@H](O)[C@@H]1O [Digoxin, reference compound]
Caco-2 cells; Table S9
  Recovery% (BL-AP): 92.72%
In vitro [6]
  Papp A→B: 0.22 ×10⁻⁶ cm/s
  Papp B→A: 12.6 ×10⁻⁶ cm/s
  efflux ratio: 58.6
  recovery: 89.9%
MDCKII-MDR1 cells [8]
  Recovery% (BL-AP): 93.20%
In vitro [9]
  recovery: 82.4%
MDR1
  Papp A→B: 0.62 ×10⁻⁶ cm/s
  Papp B→A: 13.9 ×10⁻⁶ cm/s
  efflux ratio: 22.7
